This experiment addresses T1, rat intestinal alpha glucosidase.
T1 construct: gene Si; rat intestinal alpha-glucosidase preparation
The experiment in a line: alpha-glucosidase inhibition assay. As to conditions: standard; rat intestinal enzyme. It counts as biochemical.

Converted amounts (≈) assume the structure as drawn.

As a reminder, the IC50 is the point on the concentration scale where inhibition reaches its midpoint. The low end stands for inhibition by little substance, the high end for a need for much substance.

The compound `C[C@H]1O[C@H](O[C@H]2[C@H](O)[C@@H](O)[C@@H](O[C@H]3[C@H](O)[C@@H](O)C(O)O[C@@H]3CO)O[C@@H]2CO)[C@H](O)[C@@H](O)[C@@H]1N[C@H]1C=C(CO)[C@@H](O)[C@H](O)[C@H]1O` (stereo partly shown) [acarbose] returned an IC50 of 49.78 ± 1.45 µg/mL (≈ 77.1 µM).

For the origin of these results see publication PMC4153544, “Antidiabetic Property of Symplocos cochinchinensis Is Mediated by Inhibition of Alpha Glucosidase and Enhanced Insulin Sensitivity” (PLoS ONE, 2014).
